“And” between values parts separate entries of the source, which are not always exact repeats. Equal values may be shown once.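 Assay format: 96-well plates, 48-hour exposure. At the GI50, growth is halved. The concentration for full growth arrest is given as TGI.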 The source made the active and inactive calls. Rule as the data show it: active = GI50 below about 0.43 µM; inactive = the rest.
What was measured:
Assay in all cases: NCI tumour cell line growth inhibition, 48 h
[1] = test system: KM20L2 colon
[2] = test system: XF 498 CNS
[3] = test system: DMS 114 small cell lung
[4] = test system: PC-3 prostate
[5] = test system: BT-549 breast
[6] = test system: MDA-MB-435
[7] = test system: MCF7 breast
[8] = test system: HS 578T breast

CN[C@@H]1C[C@H]2O[C@@](C)([C@@H]1OC)n1c3ccccc3c3c4c(c5c6ccccc6n2c5c31)C(=O)N[C@@H]4O
TGI [1]: 2.53 µM | TGI [2]: 0.463 µM | TGI [3]: 1.58 µM | TGI [4]: 0.258 µM and 0.13 µM | GI50 [5]: 0.0193 µM | TGI [5]: 0.3 µM and 0.627 µM | GI50 [6]: 0.0478 µM | TGI [6]: 0.3 µM and 1.88 µM | TGI [7]: 0.3 µM and 2.51 µM

COc1ccc2c(c1)[n+]([O-])c(/C(C)=N/NC(=O)CC#N)c[n+]2[O-]
TGI [1]: > 100 µM | TGI [2]: > 100 µM | TGI [3]: > 100 µM

COC(=O)C1=C(CS(=O)c2ccccc2[N+](=O)[O-])ON(C)C1c1ccccc1 (stereo not given)
TGI [1]: 85.1 µM | TGI [2]: 86.2 µM | TGI [3]: 65.5 µM

O=Cc1ccc(-c2cccs2)s1
TGI [8]: 98 µM | TGI [1]: > 100 µM | TGI [2]: 11.5 µM | TGI [3]: > 100 µM | TGI [4]: > 100 µM | TGI [5]: > 100 µM | TGI [6]: > 100 µM | TGI [7]: 17.6 µM

S=c1nc(-c2cccnc2)[nH][nH]1
TGI [1]: > 100 µM | TGI [2]: > 100 µM | TGI [3]: > 100 µM

Nc1nc(CCC(=O)Nc2cccc(C(F)(F)F)c2)cc(-c2ccc3ccccc3c2)n1
TGI [1]: > 100 µM | TGI [2]: > 100 µM | TGI [3]: > 100 µM

O=c1ccc(=O)c2c(=O)c3ccccc3c(=O)c1=2
TGI [2]: > 100 µM | TGI [3]: 95.1 µM

CCOC(=O)[C@H]1Nc2ccc(OC)cc2C2c3ccccc3CC21 (stereo not given in full)
TGI [1]: > 100 µM | TGI [2]: > 100 µM | TGI [3]: > 100 µM

COC(=O)c1nc(N)[nH]c(=O)c1CCCCCc1c(C(=O)OC)nc(N)[nH]c1=O
TGI [1]: > 50 µM | TGI [2]: > 50 µM | TGI [3]: > 50 µM

C[C-](O)O.O/C(=C\[C-](O)c1ccccc1)c1ccccc1.O/C(=C\[C-](O)c1ccccc1)c1ccccc1.[Nd+3] (stereo not given)
GI50 [1]: 5.76 µM | TGI [1]: 21 µM | GI50 [2]: 13.8 µM | TGI [2]: 36.2 µM | GI50 [3]: 17.9 µM | TGI [3]: 57 µM

O=[N+]([O-])c1ccc2c(c1)[O][Sn][O]2
outcome [1]: inactive | outcome [2]: inactive | GI50 [3]: 66.2 µg/mL | TGI [3]: > 150 µg/mL

CC[C@@]1(O)C(=O)OCc2c1cc1n(c2=O)Cc2cc3cc(N)ccc3nc2-1
GI50 [8]: 0.532 µM and 2.41 µM | GI50 [1]: 0.0314 µM and 0.0373 µM | TGI [1]: 0.854 µM and 0.547 µM | GI50 [2]: 0.149 µM and 0.138 µM | TGI [2]: 1.39 µM and 0.864 µM | GI50 [4]: 0.141 µM and 0.0842 µM | GI50 [5]: 0.158 µM | TGI [5]: 1.11 µM | GI50 [6]: 0.12 µM and 0.0188 µM | TGI [6]: 0.663 µM and 0.133 µM | GI50 [7]: 0.00165 µM | TGI [7]: 5.73 µM

CCOC(=O)C(=O)Nc1c(C(C)C)cccc1C(C)C
TGI [1]: > 100 µM | TGI [2]: > 100 µM | TGI [3]: > 100 µM

O=C(OC[C@H]1O[C@@H](OC(=O)c2cc(O)c(O)c(O)c2)[C@H](OC(=O)c2cc(O)c(O)c(O)c2)[C@@H](OC(=O)c2cc(O)c(O)c(O)c2)[C@@H]1OC(=O)c1cc(O)c(O)c(O)c1)c1cc(O)c(O)c(O)c1
TGI [1]: > 100 µM | TGI [2]: 22.5 µM | TGI [3]: 15.9 µM

Cc1nn(-c2ccccc2)c(-c2ccccc2[N+](=O)[O-])c1CC#N
TGI [1]: > 100 µM | TGI [2]: > 100 µM | TGI [3]: > 100 µM

CCN(CC)c1ccc2c(c1)Nc1cc(=C(C#N)C#N)c3ccccc3c1=N2
TGI [1]: > 100 µM | TGI [2]: > 100 µM | TGI [3]: > 100 µM

C=C1C(=O)OC2/C=C(\C=O)CC/C=C(\C)C(O)C[C@@H]12 (stereo not given in full)
TGI [1]: 22.4 µM | TGI [2]: 16.1 µM | TGI [3]: 26.6 µM

Cc1cc2c(=O)c3ccccc3[nH]c2c(C(=O)O)c1C
TGI [1]: > 100 µM | TGI [2]: > 100 µM | TGI [3]: > 100 µM

COc1ccc(/C=C2\C(=O)N(C(=O)Cc3ccccc3)N=C2C)cc1OC
TGI [2]: > 100 µM | TGI [3]: > 100 µM

Cc1c2cc[n+](C)cc2c(C)c2c1[nH]c1ccc(O)c(OCC(F)(F)F)c12
TGI [1]: > 55 µM | TGI [2]: 10.6 µM | TGI [3]: 8.04 µM

O=[N+]([O-])c1nccn1COCCBr
TGI [1]: > 100 µM | TGI [2]: > 100 µM | TGI [3]: > 100 µM
